We go through 15 compounds from publication PMC9370530, “Modified Benzoxazole-Based VEGFR-2 Inhibitors and Apoptosis Inducers: Design, Synthesis, and Anti-Proliferative Evaluation” (Molecules, 2022).

One test relates to breast cancer (MCF-7). As to the kind of experiment: In vitro anti-proliferative MTT assay, MCF-7. The settings on record: Homo sapiens, MCF7, 24 h, read-out: IC50 MCF-7.
In test [1] the test system is hepatocellular carcinoma (HepG2). As to the kind of experiment: In vitro anti-proliferative MTT assay, HepG2. The settings on record: Homo sapiens, HepG2, 24 h, read-out: IC50 HepG2. A general note: Tetrazolium dyes change colour on reduction, which living cells bring about.
Description: (§6) This test was carried out on three different human cancer cell lines: MCF-7, HCT116, and HepG2 using the MTT method [66].
(§7) This test was carried out on three different human cancer cell lines: MCF-7, HCT116, and HepG2, We performed this colorimetric experiment with quantitative assessment of anticancer activity in accordance with the MTT method [1] The assay is based primarily on a biochemical reaction in which mitochondrial succinate dehydrogenase transforms yellow tetrazolium bromide (MTT) to a purple formazan derivative in live cells.
(§8) with 10% foetal bovine serum in general. In a 5 percent CO2 incubator at 37 °C, penicillin (100 units/mL) and streptomycin (100g/mL) were introduced. The cells were seeded at a density of 1.0x10^4 cells/well in a 96-well plate at 37 C for 48 hours under 5% CO2. […] The cells were given varying concentrations of the novel compounds and cultured for 24 hours. Then we add 20 l of MTT in a 5 mg/ml solution and let it sit for 4 hours.
(§9) 100 µl of DMSO was applied to each well to dissolve the purple formazan produced.
(§10) curve for each conc. using Graphpad Prism software (San Diego, CA. USA). The data presented are the mean of at least three separate experiments.
(§11) The IC50 of the selected derivatives were determined against VEGFR-2 kinase with enzyme linked immunosorbent assay (ELISA). We used a human VEGFR-2 ELISA kit. VEGFR-2 specific antibody was seeded on a 96 well microplate and 100 μL of solution of the standard or the tested compound was added. After incubation for 2.5 h. at room temperature and washing, 100 μL of prepared biotin antibody was added. Incubation of the plates for 1 h at room temperature and then washing were carried out before addition of streptavidin solution (100 μL). The mixture was incubated for 1h at room temperature and then washed. After that, 100 μL of tetramethybenzidine (TMB) substrate solution was added before incubation for half an hour at room temperature.
(§12) Finally, 50 μL of the stop solution was added immediately before the reading at 450 nm.
(§13) Percent inhibition was calculated by the comparison of compounds treated to control
For test [2], the system named is colorectal carcinoma (HCT116). As to the kind of experiment: In vitro anti-proliferative MTT assay, HCT116. The settings on record: Homo sapiens, HCT-116, 24 h, read-out: IC50 HCT116.
Description: as §6, §7, §8, §9, §10, §11, §12, §13
In another test the target is T1, VEGFR-2 kinase (Homo sapiens, UniProt P35968).
T1 construct: purchased
T1 sequence (P35968 20-1356): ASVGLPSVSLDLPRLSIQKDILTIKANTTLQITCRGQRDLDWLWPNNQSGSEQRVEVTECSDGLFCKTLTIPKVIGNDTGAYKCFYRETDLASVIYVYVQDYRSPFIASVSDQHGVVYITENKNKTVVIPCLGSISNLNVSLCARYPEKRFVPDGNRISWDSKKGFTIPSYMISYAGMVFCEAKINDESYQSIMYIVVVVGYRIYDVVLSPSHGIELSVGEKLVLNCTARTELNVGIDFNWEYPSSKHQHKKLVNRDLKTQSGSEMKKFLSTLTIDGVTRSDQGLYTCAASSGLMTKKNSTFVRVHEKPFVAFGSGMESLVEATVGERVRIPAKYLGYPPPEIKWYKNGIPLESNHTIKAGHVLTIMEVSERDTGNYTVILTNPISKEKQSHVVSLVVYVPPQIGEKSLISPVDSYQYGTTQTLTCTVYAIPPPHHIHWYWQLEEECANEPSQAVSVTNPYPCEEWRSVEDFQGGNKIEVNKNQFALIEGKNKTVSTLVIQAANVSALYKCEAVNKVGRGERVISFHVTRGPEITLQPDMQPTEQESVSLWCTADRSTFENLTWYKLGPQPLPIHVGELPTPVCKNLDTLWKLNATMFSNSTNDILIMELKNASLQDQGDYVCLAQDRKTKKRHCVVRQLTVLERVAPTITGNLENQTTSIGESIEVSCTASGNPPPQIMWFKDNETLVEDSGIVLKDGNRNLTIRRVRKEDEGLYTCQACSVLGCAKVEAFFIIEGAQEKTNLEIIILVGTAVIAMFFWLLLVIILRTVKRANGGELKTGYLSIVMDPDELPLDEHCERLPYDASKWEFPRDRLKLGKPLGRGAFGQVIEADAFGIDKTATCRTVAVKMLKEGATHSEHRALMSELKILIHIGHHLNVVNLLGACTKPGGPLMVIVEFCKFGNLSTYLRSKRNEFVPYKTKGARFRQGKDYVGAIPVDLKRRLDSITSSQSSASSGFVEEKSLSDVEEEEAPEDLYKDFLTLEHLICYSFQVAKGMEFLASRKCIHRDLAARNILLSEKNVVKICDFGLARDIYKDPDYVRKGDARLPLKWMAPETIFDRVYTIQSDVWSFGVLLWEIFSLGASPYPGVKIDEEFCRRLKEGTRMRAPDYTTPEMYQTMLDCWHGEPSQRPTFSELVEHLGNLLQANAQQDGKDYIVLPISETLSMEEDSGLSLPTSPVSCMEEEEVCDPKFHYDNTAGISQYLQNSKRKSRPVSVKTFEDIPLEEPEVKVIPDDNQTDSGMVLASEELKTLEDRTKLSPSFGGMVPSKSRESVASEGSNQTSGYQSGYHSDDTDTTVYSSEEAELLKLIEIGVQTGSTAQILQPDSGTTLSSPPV
As to the kind of experiment: In vitro VEGFR-2 kinase inhibitory assay (ELISA kit). In kind it is biochemical. Particulars: human VEGFR-2 ELISA kit; median of three experiments. On the technique in general: An ELISA detects its analyte on a solid surface through an enzyme-linked reagent.

Another test concerns TNF-α. The test can be described thus: TNF-α level in HepG2 cells by qRT-PCR. In kind it is cell-based. Particulars: Homo sapiens, 2.43 µM for 24 h. As to the method: (§1) The inhibition of these mediators caused apoptosis of tumor cells. Therefore, further investigation was conducted to see how compound 8 affect these cytokines (TNF-α and IL-6). Compound 8d was added to HepG2 cells at a concentration of 2.43 µM for 24 h, then the levels of TNF-α and IL-6 were measured using the qRT-PCR method.
(§2) The effects of 8d on TNF-α and IL-6 were determined using the qRT-PCR technique. The Supplementary data provides further detailed information about the study. […]
(§3) HepG2 cells were cultured according to the methodology described by Wang et al. The cells were planted and cultured for 24 h in six-well plates. Each well had 2 × 10^5 cells in it. Then 10% fetal bovine serum (FBS) was added, and the cells were incubated at 37 °C with 5% CO2.
(§4) The medium was then changed. DMSO (1% v/v) containing 2.43 μM of compound 8d was substituted. Following that, the cells were rinsed in cold phosphate buffered saline. […]
(§5) 1.5. Quantitative Real Time Reverse-Transcriptase PCR (qRT-PCR) technique The effects of compound 8d on the expression of TNF-α and IL-6 were determined using qRT-PCR technique. The quantity of immunomodulatory proteins (TNF-α and IL-6) in control and compound 8d (at the IC50 concentration)-treated HepG2 cells was assessed by qRT-PCR (reference). […]

A further test relates to IL-6. The test can be described thus: IL-6 level in HepG2 cells by qRT-PCR. The settings on record: Homo sapiens, 2.43 µM for 24 h. Format: cell-based. As to the method:
as §1, §2, §3, §4, §5
On the technique in general: Quantitative PCR measures a nucleic acid by following its amplification.

The next test has as its system HepG2 cells. As to the kind of experiment: HepG2 cell cycle analysis (PI flow cytometry). The settings on record: 2.43 μM of compound. In kind it is cell-based, human. As to the method:
The most promising candidate, compound 8d, was further evaluated by analyzing its effect on cycle phases of the HepG2 cells. From the results presented in Table 3, it can be noticed that a large percentage (70.23%) of cells treated with 8d was accumulated at the pre-G1 phase compared to the 2.70% reported for control cells. This clearly indicates the ability of compound 8d to inhibit HepG2 cell proliferation efficiently at the pre-G1 phase (Figure 5).
HepG2 Cell Cycle Analysis was performed for compound 8d according to the methodology reported by Wang et al.. The Supplementary data provides further detailed information about the study. […]
as §3
The medium was then changed. DMSO (1% v/v) containing 2.43 μM of compound 8d was substituted. Following that, the cells were rinsed in cold phosphate buffered saline. (PBS), then fixed in 70% ethyl alcohol, washed in PBS, and […]. After that, the DNA fluorochrome propidium iodide (PI) was maintained at […] for 1 5 minutes at 37 °C. A FACS Caliber flow cytometer was used to analyze the samples. […]

Description for breast cancer (MCF-7): as §6, §7, §8, §9, §10, §11, §12, §13

Take `O=C(CSc1nc2ccccc2o1)Nc1ccc(C(=O)NCCc2ccccc2)cc1` [Compound 8l, 4-(2-(Benzo[d]oxazol-2-ylthio)acetamido)-N-phenethylbenzamide]: the IC50 in the test with breast cancer (MCF-7) worked out at 12.5 ± 1.05 µM; in test [1] it was 11.2 ± 0.95 µM; in test [2] it was 14.2 ± 1.2 µM.

For the compound `O=C(CSc1nc2cc(Cl)ccc2o1)Nc1ccc(C(=O)NCc2ccccc2)cc1` [Compound 8j, N-Benzyl-4-(2-((5-chlorobenzo[d]oxazol-2-yl)thio)acetamido)benzamide], the IC50 in the test with breast cancer (MCF-7) was found to be 16.9 ± 1.5 µM; in test [1], 14.2 ± 1.1 µM; in test [2], 18.2 ± 1.5 µM.

Turning to `O=C(CSc1nc2ccccc2o1)Nc1ccc(C(=O)NCc2ccccc2)cc1` [Compound 8i, 4-(2-(Benzo[d]oxazol-2-ylthio)acetamido)-N-benzylbenzamide], the IC50 against VEGFR-2 kinase worked out at 0.317 µM; with breast cancer (MCF-7) it was 10 ± 0.95 µM; in test [1], 5.92 ± 0.47 µM; in test [2] it was 8.53 ± 0.77 µM.

For `O=C(CSc1nc2cc(Cl)ccc2o1)Nc1ccc(C(=O)Nc2ccc([N+](=O)[O-])cc2)cc1` [Compound 8e, 4-(2-((5-Chlorobenzo[d]oxazol-2-yl)thio)acetamido)-N-(4-nitrophenyl) benzamide], the IC50 against VEGFR-2 kinase is 0.0741 µM; in the test on breast cancer (MCF-7), 5.69 ± 0.44 µM; in test [1] it was 4.51 ± 0.35 µM; in test [2] it was 3.29 ± 0.26 µM.

On to `Cc1ccc(NC(=O)c2ccc(NC(=O)CSc3nc4cc(C)ccc4o3)cc2)cc1` [Compound 8c, 4-(2-((5-Methylbenzo[d]oxazol-2-yl)thio)acetamido)-N-(p-tolyl)benzamide], for which the IC50 came out at 1.14 µM against VEGFR-2 kinase, 9.15 ± 0.85 µM with breast cancer (MCF-7), 8.16 ± 0.77 µM in test [1] and 6.12 ± 0.55 µM in test [2].

For the compound `Cc1ccc2oc(SCC(=O)Nc3ccc(C(=O)NCCc4ccccc4)cc3)nc2c1` [Compound 8m, 4-(2-((5-Methylbenzo[d]oxazol-2-yl)thio)acetamido)-N-phenethylbenzamide], the results for the IC50 (with breast cancer (MCF-7); in test [1]; in test [2]) were 25.8 ± 2.1 µM, 28.6 ± 2.1 µM and 16.4 ± 1.3 µM, respectively.

On to `CC(=O)c1ccc(NC(=O)c2ccc(NC(=O)CSc3nc4cc(Cl)ccc4o3)cc2)cc1` [Compound 8g, N-(4-Acetylphenyl)-4-(2-((5-chlorobenzo[d]oxazol-2-yl)thio)acetamido) benzamide], for which the IC50 turned out to be 12.5 ± 1.1 µM with breast cancer (MCF-7), 8.44 ± 0.65 µM in test [1] and 10.4 ± 0.92 µM in test [2].

Regarding `C[C@@H]1C[C@H]2[C@@H]3CCC4=CC(=O)C=C[C@]4(C)[C@@]3(F)[C@@H](O)C[C@]2(C)[C@@]1(O)C(=O)CO` [Dexamethasone, reference compound], the inhibition at 2.43 µM with TNF-α worked out at 82.5%; with IL-6, 93.2%.

For `Cc1ccc(NC(=O)c2ccc(NC(=O)CSc3nc4cc(Cl)ccc4o3)cc2)cc1` [Compound 8b, 4-(2-((5-Chlorobenzo[d]oxazol-2-yl)thio)acetamido)-N-(p-tolyl)benzamide], the IC50 was 12.4 ± 0.92 µM in the test with breast cancer (MCF-7), 10.4 ± 0.92 µM in test [1] and 11.6 ± 0.91 µM in test [2].

On to `CC(=O)c1ccc(NC(=O)c2ccc(NC(=O)CSc3nc4cc(C)ccc4o3)cc2)cc1` [Compound 8h, N-(4-Acetylphenyl)-4-(2-((5-methylbenzo[d]oxazol-2-yl)thio)acetamido) benzamide], for which the IC50 against VEGFR-2 kinase came out at 0.114 µM; in the test on breast cancer (MCF-7) it was 3.53 ± 0.28 µM; in test [1], 2.76 ± 0.18 µM; in test [2], 2.94 ± 0.19 µM.

Regarding `Cc1ccc(NC(=O)c2ccc(NC(=O)CSc3nc4ccccc4o3)cc2)cc1` [Compound 8a, 4-(2-(Benzo[d]oxazol-2-ylthio)acetamido)-N-(p-tolyl)benzamide], the IC50 on VEGFR-2 kinase was determined as 0.0579 µM; in the test on breast cancer (MCF-7) it was 9.49 ± 0.75 µM; in test [1] it was 10.4 ± 0.98 µM; in test [2], 10.1 ± 0.95 µM.

Turning to `CNC(=O)c1cc(Oc2ccc(NC(=O)Nc3ccc(Cl)c(C(F)(F)F)c3)cc2)ccn1` [Sorafenib, reference compound], the figures for the IC50 in test [1] and in test [2] were 3.4 ± 0.25 µM and 5.3 ± 0.44 µM, respectively.

As for `Cc1ccc2oc(SCC(=O)Nc3ccc(C(=O)NCc4ccccc4)cc3)nc2c1` [Compound 8k, N-Benzyl-4-(2-((5-methylbenzo[d]oxazol-2-yl)thio)acetamido)benzamide], the IC50 against VEGFR-2 kinase was found to be 0.653 µM; in the test with breast cancer (MCF-7), 8.37 ± 0.77 µM; in test [1], 10.1 ± 0.93 µM; in test [2] it was 8.09 ± 0.71 µM.

`Cc1ccc2oc(SCC(=O)Nc3ccc(C(=O)Nc4ccc([N+](=O)[O-])cc4)cc3)nc2c1` [Compound 8f, 4-(2-((5-Methylbenzo[d]oxazol-2-yl)thio)acetamido)-N-(4-nitrophenyl) benzamide]: the IC50 against VEGFR-2 kinase came out at 0.204 µM; in the test on breast cancer (MCF-7) it was 4.97 ± 0.32 µM; in test [1] it was 4.41 ± 0.35 µM; in test [2] it was 4 ± 0.33 µM.

Turning to `O=C(CSc1nc2ccccc2o1)Nc1ccc(C(=O)Nc2ccc([N+](=O)[O-])cc2)cc1` [Compound 8d, 4-(2-(Benzo[d]oxazol-2-ylthio)acetamido)-N-(4-nitrophenyl)benzamide], the “%Pre-G1” value in the test on HepG2 cells (control 2.70) was determined as 70.23%. For the same compound, the “%G2-M” value in the test on HepG2 cells (control 19.31) is given as 19.1%. The “%G0–G1” value with HepG2 cells (control 39.81) is on record as 31.1%. Further, in the test on HepG2 cells (control 40.88), the “%S” value came to 49.8%. The inhibition at 2.43 µM in the test on TNF-α worked out at 90.5%; in the test with IL-6 it was 92.2%. The IC50 in the test on breast cancer (MCF-7) was found to be 3.43 ± 0.15 µM; in test [1] it was 2.43 ± 0.16 µM; in test [2] it was 2.79 ± 0.19 µM.

For orientation: IC50 means the concentration needed to halve the response being measured. The term inhibition denotes the relative decrease from the control value, in per cent. Read a high inhibition as a response far below the control.
